Patent US10323022B2, “Pyrrolidinyl urea, pyrrolidinyl thiourea and pyrrolidinyl guanidine compounds as TrkA kinase inhibitors” (Array BioPharma Inc., priority 2011, dated 2019)
Counter-ions that a name gives are not always drawn.

target: TrkA (Homo sapiens (Human), UniProt P04629); assay: TrkA Omnia Assay; assay type: biochemical; conditions: averaged IC50; 20 nM enzyme, 500 μM ATP, 10 μM peptide substrate
Method in brief: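 Recombinant TrkA (20 nM) preincubated 10 min at ambient temperature with compound, then Omnia Tyr Peptide #4 (10 μM) and ATP (500 μM) added in 25 mM MOPS pH 7.5, 5 mM MgCl2, 0.005% Triton X-100. Fluorescence (ex 360/em 485 nm) followed continuously for 70 min; IC50 from initial rates by 4- or 5-parameter logistic fit.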

TrkA, sequence (P04629 33-796): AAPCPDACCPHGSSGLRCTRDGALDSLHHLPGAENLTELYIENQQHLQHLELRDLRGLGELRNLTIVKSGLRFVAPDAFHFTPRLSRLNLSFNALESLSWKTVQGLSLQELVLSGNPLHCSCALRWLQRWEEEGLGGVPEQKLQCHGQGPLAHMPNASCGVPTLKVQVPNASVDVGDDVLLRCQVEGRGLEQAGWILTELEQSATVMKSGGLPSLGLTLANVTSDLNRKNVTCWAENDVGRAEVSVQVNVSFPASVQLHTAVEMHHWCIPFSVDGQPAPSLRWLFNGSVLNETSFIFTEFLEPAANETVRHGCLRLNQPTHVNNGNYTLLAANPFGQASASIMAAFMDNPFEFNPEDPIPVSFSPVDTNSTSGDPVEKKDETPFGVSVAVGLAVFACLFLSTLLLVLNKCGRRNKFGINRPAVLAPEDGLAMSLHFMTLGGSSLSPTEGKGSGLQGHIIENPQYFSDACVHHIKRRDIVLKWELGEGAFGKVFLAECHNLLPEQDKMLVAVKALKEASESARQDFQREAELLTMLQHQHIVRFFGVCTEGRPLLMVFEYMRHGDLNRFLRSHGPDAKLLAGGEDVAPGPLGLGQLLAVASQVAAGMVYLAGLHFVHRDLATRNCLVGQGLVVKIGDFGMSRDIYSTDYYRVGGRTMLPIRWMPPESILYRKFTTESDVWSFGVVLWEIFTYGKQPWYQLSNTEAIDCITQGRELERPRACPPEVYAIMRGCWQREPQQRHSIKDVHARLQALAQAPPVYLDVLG

IC50 [nM]	SMILES
< 100	COCCN1C[C@@H](NC(=O)Nc2c(C)c(OC[C@H](O)CO)nn2-c2ccccc2)[C@H](c2ccc(F)c(F)c2)C1 [Example 176, 1-((3S,4R)-4-(3,4-difluorophenyl)-1-(2-methoxyethyl)pyrrolidin-3-yl)-3-(3-((R)-2,3-dihydroxypropoxy)-4-methyl-1-phenyl-1H-pyrazol-5-yl)urea]
< 100	COCCN1C[C@@H](NC(=O)Nc2c(C)c(OC[C@@H](O)CO)nn2-c2ccccc2)[C@H](c2ccc(F)c(F)c2)C1 [Example 177, 1-((3S,4R)-4-(3,4-difluorophenyl)-1-(2-methoxyethyl)pyrrolidin-3-yl)-3-(3-((S)-2,3-dihydroxypropoxy)-4-methyl-1-phenyl-1H-pyrazol-5-yl)urea]
< 100	COCCN1C[C@@H](NC(=O)Nc2c(C)c(OCCO)nn2-c2ccccc2)[C@H](c2ccc(F)c(F)c2)C1 [Example 178, 1-((3S,4R)-4-(3,4-difluorophenyl)-1-(2-methoxyethyl)pyrrolidin-3-yl)-3-(3-(2-hydroxyethoxy)-4-methyl-1-phenyl-1H-pyrazol-5-yl)urea hydrochloride]
< 100	COCCN1C[C@@H](NC(=O)Nc2c(C)c(OC[C@H](C)O)nn2-c2ccccc2)[C@H](c2ccc(F)c(F)c2)C1 [Example 179, 1-((3S,4R)-4-(3,4-difluorophenyl)-1-(2-methoxyethyl)pyrrolidin-3-yl)-3-(3-((S)-2-hydroxypropoxy)-4-methyl-1-phenyl-1H-pyrazol-5-yl)urea hydrochloride]
1000 to 10000	COCCN1C[C@@H](NC(=O)Nc2c3c(nn2-c2ccccc2)CCC3)[C@](O)(c2ccccc2)C1 [Example 180, 1-((3R,4S)-4-hydroxy-1-(2-methoxyethyl)-4-phenylpyrrolidin-3-yl)-3-(2-phenyl-2,4,5,6-tetrahydrocyclopenta[c]pyrazol-3-yl)urea]
100 to 1000	COCCN1C[C@@H](NC(=O)Nc2c3c(nn2-c2ccccc2)CCC3)[C@](F)(c2ccccc2)C1 [Example 181, 1-((3R,4S)-4-fluoro-1-(2-methoxyethyl)-4-phenylpyrrolidin-3-yl)-3-(2-phenyl-2,4,5,6-tetrahydrocyclopenta[c]pyrazol-3-yl)urea]
1000 to 10000	CO[C@@H](C)CN1C[C@@H](NC(=O)Nc2c3c(nn2-c2ccccc2)CCC3)[C@H](c2ccccc2)C1 [Example 184, 1-((3S,4R)-1-((S)-2-methoxypropyl)-4-phenylpyrrolidin-3-yl)-3-(2-phenyl-2,4,5,6-tetrahydrocyclopenta[c]pyrazol-3-yl)urea]
100 to 1000	O=C(Nc1c2c(nn1-c1ccccc1)CCC2)NC1CN(CCCC(F)(F)F)C[C@H]1c1ccccc1 (stereo partly drawn) [Example 185, 1-((3,4-trans)-4-phenyl-1-(4,4,4-trifluorobutyl)pyrrolidin-3-yl)-3-(2-phenyl-2,4,5,6-tetrahydrocyclopenta[c]pyrazol-3-yl)urea]
< 100	N#CCN1C[C@@H](NC(=O)Nc2c3c(nn2-c2ccccc2)CCC3)[C@H](c2ccc(F)c(F)c2)C1 [Example 186, 1-((3S,4R)-1-(cyanomethyl)-4-(3,4-difluorophenyl)pyrrolidin-3-yl)-3-(2-phenyl-2,4,5,6-tetrahydrocyclopenta[c]pyrazol-3-yl)urea]
100 to 1000	COCCOc1nn(-c2ccccc2)c(NC(=O)N[C@@H]2CN(CC#N)C[C@H]2c2ccc(F)c(F)c2)c1C [Example 187, 1-((3S,4R)-1-(cyanomethyl)-4-(3,4-difluorophenyl)pyrrolidin-3-yl)-3-(3-(2-methoxyethoxy)-4-methyl-1-phenyl-1H-pyrazol-5-yl)urea]
100 to 1000	N#CCN1C[C@@H](NC(=O)Nc2c3c(nn2-c2ccccc2)CCC3)[C@H](c2ccccc2)C1 [Example 188, 1-((3,4-trans)-1-(cyanomethyl)-4-phenylpyrrolidin-3-yl)-3-(2-phenyl-2,4,5,6-tetrahydrocyclopenta[c]pyrazol-3-yl)urea]
100 to 1000	N#CCN1C[C@@H](NC(=O)Nc2c3c(nn2-c2ccccc2)CCC3)[C@H](c2ccccc2)C1 [Example 189, 1-((3S,4R)-1-(cyanomethyl)-4-phenylpyrrolidin-3-yl)-3-(2-phenyl-2,4,5,6-tetrahydrocyclopenta[c]pyrazol-3-yl)urea]
1000 to 10000	NC(=O)CN1C[C@@H](NC(=O)Nc2c3c(nn2-c2ccccc2)CCC3)[C@H](c2ccccc2)C1 [Example 190, 2-((3R,4S)-3-phenyl-4-(3-(2-phenyl-2,4,5,6-tetrahydrocyclopenta[c]pyrazol-3-yl)ureido)pyrrolidin-1-yl)acetamide]
100 to 1000	Cc1nn(-c2ccccc2)c(NC(=O)N[C@@H]2CN(CCO)C[C@H]2c2ccc(F)c(F)c2)c1C [Example 191, 1-((3S,4R)-4-(3,4-difluorophenyvl)-1-(2-hydroxyethyl)pyrrolidin-3-yl)-3-(3,4-dimethyl-1-phenyl-1H-pyrazol-5-yl)urea]
100 to 1000	O=C(Nc1c2c(nn1-c1ccccc1)CCC2)N[C@@H]1CN(CCC(F)(F)C(F)(F)F)C[C@H]1c1ccccc1 [Example 192, 1-((trans)-1-(3,3,4,4,4-pentafluorobutyl)-4-phenlpyrrrolidin-3-yl)-3-(2-phenyl-2,4,5,6-tetrahydrocyclopenta[c]pyrazol-3-yl)urea]
100 to 1000	O=C(Nc1c2c(nn1-c1ccccc1)CCC2)N[C@@H]1CN(CC(F)(F)F)C[C@H]1c1cccc(F)c1 [Example 200, 1-((3S,4R)-4-(3-fluorophenyl)-1-(2,2,2-trifluoroethyl)pyrrolidin-3-yl)-3-(2-phenyl-2,4,5,6-tetrahydrocyclopenta[c]pyrazol-3-yl)urea]
100 to 1000	Cc1nn(-c2ccccc2)c(NC(=O)N[C@@H]2CN(CC(F)(F)F)C[C@H]2c2cccc(F)c2)c1C [Example 201, 1-(3,4-dimethyl-1-phenyl-1H-pyrazol-5-yl)-3-((3S,4R)-4-(3-fluorophenyl)-1-(2,2,2-trifluoroethyl)pyrrolidin-3-yl)urea]
< 100	COCCOc1nn(-c2ccccc2)c(NC(=O)N[C@@H]2CN(CC(F)(F)F)C[C@H]2c2cccc(F)c2)c1C [Example 202, 1-((3S,4R)-4-(3-fluorophenyl)-1-(2,2,2-trifluoroethyl)pyrrolidin-3-yl)-3-(3-(2-methoxyethoxy)-4-methyl-1-phenyl-1H-pyrazol-5-yl)urea]
100 to 1000	Cn1nc(-c2ccccc2)cc1NC(=O)N[C@@H]1CN(CC(F)(F)F)C[C@H]1c1cccc(F)c1 [Example 203, 1-((3S,4R)-4-(3-fluorophenyl)-1-(2,2,2-trifluoroethyl)pyrrolidin-3-yl)-3-(1-methyl-3-phenyl-H-pyrazol-5-yl)urea]
< 100	O=C(Nc1c2c(nn1-c1ccccc1)CCC2)N[C@H]1CN(CC(F)(F)F)C[C@@H]1c1cccc(F)c1 [Example 204, 1-((3R,4S)-4-(3-fluorophenyl)-1-(2,2,2-trifluoroethyl)pyrrolidin-3-yl)-3-(2-phenyl-2,4,5,6-tetrahydrocyclopenta[c]pyrazol-3-yl)urea]
100 to 1000	O=C(Nc1c2c(nn1-c1ccccc1)CCC2)N[C@@H]1CN(CC(F)(F)F)CC1c1cccnc1 (stereo partly drawn) [Example 213, 1-(2-phenyl-2,4,56-tetrahydrocyclopenta[c]pyrazol-3-yl)-3-((trans)-4-(pyridin-3-v)-1-(2,2,2-trifluoroethyl)pyrrolidin-3-yl)urea]
< 100	CCOc1nn(-c2ccccc2)c(NC(=O)N[C@@H]2CN(c3cn[nH]c3)C[C@H]2c2ccc(F)c(F)c2)c1C [Example 216, 1-((3S,4R)-4-(3,4-difluorophenyl)-1-(1H-pyrazol-4-yl)pyrrolidin-3-yl)-3-(3-ethoxy-4-methyl-1-phenyl-1H-pyrazol-5-yl)urea]
< 100	CCOc1nn(-c2ccccc2)c(NC(=O)N[C@@H]2CN(c3cn[nH]c3)C[C@H]2c2cc(F)cc(F)c2)c1C [Example 217, 1-((3S,4R)-4-(3,5-difluorophenyl)-1-(1H-pyrazol-4-yl)pyrrolidin-3-yl)-3-(3-ethoxy-4-methyl-1-phenyl-1H-pyrazol-5-yl)urea]
< 100	CCOc1nn(-c2ccccc2)c(NC(=O)N[C@@H]2CN(c3cc[nH]n3)C[C@H]2c2cc(F)cc(F)c2)c1C [Example 218, 1-((3S,4R)-4-(3,5-difluorophenyvl)-1-(1H-pyrazol-3-yl)pyrrolidin-3-yl)-3-(3-ethoxy-4-methyl-1-phenyl-1H-pyrazol-5-yl)urea]
< 100	CCOc1nn(-c2ccccc2)c(NC(=O)N[C@@H]2CN(c3c[nH]nc3C)C[C@H]2c2ccc(F)c(F)c2)c1C [Example 219, 1-((3S,4R)-4-(3,4-difluorophenyl)-1-(3-methyl-1H-pyrazol-4-yl)pyrrolidin-3-yl)-3-(3-ethoxy-4-methyl-1-phenyl-1H-pyrazol-5-yl)urea]
100 to 1000	CCOc1nn(-c2ccccc2)c(NC(=O)N[C@@H]2CN(c3c[nH]nc3C(F)(F)F)C[C@H]2c2ccc(F)c(F)c2)c1C [Example 220, 1-((3S,4R)-4-(3,4-difluorophenyl)-1-(3-(trifluoromethyl)-1H-pyrazol-4-yl)pyrrolidin-3-yl)-3-(3-ethoxy-4-methyl-1-phenyl-1H-pyrazol-5-yl)urea]
< 100	Cc1c(OC[C@H](C)O)nn(-c2ccccc2)c1NC(=O)N[C@@H]1CN(c2cn[nH]c2)C[C@H]1c1ccc(F)c(F)c1 [Example 221, 1-((3S,4R)-4-(3,4-difluorophenyl)-1-(1H-pyrazol-4-yl)pyrrolidin-3-yl)-3-(3-((S)-2-hydroxypropoxy)-4-methyl-1-phenyl-1H-pyrazol-5-yl)urea]
< 100	Cc1c(OC[C@H](O)CO)nn(-c2ccccc2)c1NC(=O)N[C@@H]1CN(c2cn[nH]c2)C[C@H]1c1ccc(F)c(F)c1 [Example 222, 1-((3S,4R)-4-(3,4-difluorophenyl)-1-(1H-pyrazol-4-yl)pyrrolidin-3-yl)-3-(3-((R)-2,3-dihydroxypropoxy)-4-methyl-1-phenyl-1H-pyrazol-5-yl)urea]
